Experimental data taken from patent US12064759B2, “Microfluidic device with embedded cell culture chambers for high throughput biological assays” (NUtech Ventures, priority 2020, dated 2024).
Where a name gives a salt, the structure may show the parent alone.

Legend:
A431 cells [1] = assay: Multi-well (static culture) Dox study on A431 cells, live/dead assay; type: cell-based; details: Dox 0, 6, 12, 18, 24 and 30 μg/ml; device flow rate 0.05 μl/min
Experimental: Viability data with DMEM/Dox at the inlets at a flow rate of 0.05 μl/ml was compared with Dox treatment of A431 cells in static culture. A lower flow rate was chosen to minimize the effect of the shear stress on cell detachment and cell death. […] Cell viabilities data was collected by counting cells stained green and red from these chambers. According to simulation data, the concentration of Dox in the chambers 13 through 18 are: 0 μg/ml, 6 μg/ml, 12 μg/ml, 18 μg/ml, 24 μg/ml and 30 μg/ml. These dosages were applied in static culture and the viability data were collected. […] Doxorubicin hydrochloride 98.0-102.0% (HPLC) with molecular weight of 579.98 was dissolved in water and was diluted in DMEM media. For A431 cells, live-dead staining kit was diluted with PBS and was continuously flowed into the chambers with cells for 2 hours. Live-dead kit contains, Calcein-AM which stains green to the cytoskeleton of live cells and ethidium homodimer which stains red to the nuclei of dead cells. Cells were then counted with ImageJ cell counter module. Viability of the cells was calculated as the ratio of the live cells (stained green) over the total number of the cell, summation of the live (green) and dead (red) cells within each chamber.

A431 cells [2] = assay: Drug screening with live/dead assay on A431 cells in the MECT microfluidic device; type: cell-based
Experimental: Taking advantage of the ability of the MECT device in generating uniform gradient within each chamber, a drug screening study with A431 cells administrated with control media and Dox was performed. Five conditions were studied: (1) Cells were stained with live/dead assay 24 hours after seeding without any media flow. This serves as the control; (2) cells were perfused by DMEM from both inlets for 12 hours before live/dead staining. This experiment examined the effect of shear stress on cell viability; (3, 4, 5) cells were perfused for 12 hours with DMEM/Dox (at a concentration of 30 μg/ml) from the bottom inlet and DMEM from the top inlet at flow rates of 0.05 μl/min (3), 0.1 μl/min (4) and 0.2 μl/min (5) for both inlets. Representative images for the studies of condition 1, 2, 4 and 5 are shown in FIGS. 6a-6d and of condition 3 in FIG. 7a. These studies were performed after the cells had been seeded within the microchambers for 24 hours. […] This provided clear evidence that cells within each chamber were viable and the device works properly. The effect of shear stress was then examined by perfusion of both inlets with a control media, Dulbecco's Modified Eagle Medium (DMEM) at a flow rate of 0.1 μl/min. Overall a slightly lower cell viability, at an average of 88%, was observed due to the shear induced cell death (FIG. 6b). In addition, the cell viability increased from the columns closest to the inlet of the device to the columns closes to the outlets, in agreement with COMSOL simulation where the shear stress is higher in the columns close to the inlets (FIG. 5).
As discussed in microchannel fabrication, PDMS with ratio 1:10 were used to fabricate the microchannel and it was bonded to glass-slides and cured for 30 min at 80° C. inside the oven. Human fibronectin protein (Thermofisher) with the concentration of 50 μg/ml was used to coat the surface of the glass-slide as the bottom layer of the microchannels. Fibronectin was flowed into the microchannels by syringes and incubated for 2 hours. The fibronectin coated microchannel was washed with PBS. A mixture of the cell and DMEM was flowed into the microchannel by syringe pump at a flow rate (30 μl/min). The concentration of cell mixture was about 10 million cells per ml of media. Cell attachment and proliferation inside the microchannel was reached by placing the microchannel inside the incubator for 24 hours.
Doxorubicin hydrochloride 98.0-102.0% (HPLC) with molecular weight of 579.98 was dissolved in water and was diluted in DMEM media. […] Cells were then counted with ImageJ cell counter module. Viability of the cells was calculated as the ratio of the live cells (stained green) over the total number of the cell, summation of the live (green) and dead (red) cells within each chamber.

## COc1cccc2c1C(=O)c1c(O)c3c(c(O)c1C2=O)C[C@@](O)(C(=O)CO)C[C@@H]3O[C@H]1C[C@H](N)[C@H](O)[C@H](C)O1 [Dox, Doxorubicin hydrochloride]
A431 cells [1]
  cell viability in static culture compared with device chambers #13 through #18: reasonable agreement
A431 cells [2]; 12 h, Dox 30 μg/ml, higher shear stress at higher flow rate
  overall cell viability in condition 5 (0.2 μl/min DMEM/Dox) versus condition 4 (0.1 μl/min DMEM/Dox): clearly lower
A431 cells [2]; 12 h DMEM/Dox 30 μg/ml, flow rates 0.05, 0.1 and 0.2 μl/min (conditions 3 through 5)
  cell viability from chambers #13 to #18: overall decline
A431 cells [2]; 12 h perfusion, DMEM top inlet, DMEM/Dox 30 μg/ml bottom inlet, flow rates 0.1 and 0.2 μl/min
  cell viability from top chamber to bottom chamber of each column (lowest to highest Dox concentration): decreased significantly
A431 cells [2]; doxorubicin flowed into chambers at different flow rate
  effect of increasing doxorubicin concentrations within chambers on skin cancer cells: induces cell death
